According to PMC2453323 (PLoS Pathogens, 2008):

Key:
Assay type in all cases: biochemical
[1] = biological target: neuraminidase (H275Y) of A(H1N1) clinical isolate 0749/07 (Influenza A virus (H1N1), UniProt D5F1R0, D354G/H275Y)
[2] = biological target: neuraminidase (H275Y) of A(H1N1) clinical isolate 0644/07 (Influenza A virus (H1N1), UniProt D5F1R0, D354G/H275Y)
[3] = biological target: neuraminidase (H275Y) of A(H1N1) clinical isolate 0847/07 (Influenza A virus (H1N1), UniProt D5F1R0, D354G/H275Y)
[4] = biological target: neuraminidase (H275Y) of A(H1N1) clinical isolate 1170/08 (Influenza A virus (H1N1), UniProt G3LYR2)
[5] = biological target: neuraminidase (H275Y) of A(H1N1) clinical isolate 1157/08 (Influenza A virus (H1N1), UniProt G3LYR2, G214E)
[6] = biological target: neuraminidase (H275Y) of A(H1N1) clinical isolate 0910/08 (Influenza A virus (H1N1), UniProt G3LYR2)
[7] = biological target: neuraminidase (H275Y) of the 11 resistant H1N1 viruses from the 2007–2008 season (Influenza A virus (H1N1), UniProt G3LYQ1, H275Y); conditions: read-out: Mean Km, group Mean
[8] = biological target: neuraminidase (H275Y) of A(H1N1) clinical isolate 0341/07 (Influenza A virus (H1N1), UniProt D5F1R0, D354G/H275Y)
[9] = biological target: neuraminidase (H275Y) of A(H1N1) clinical isolate 1208/08 (Influenza A virus (H1N1), UniProt G3LYR2)
[10] = biological target: neuraminidase (H275Y) of A(H1N1) clinical isolate 0577/07 (Influenza A virus (H1N1), UniProt D5F1R0, D354G/H275Y)
[11] = biological target: neuraminidase (H275Y) of A(H1N1) clinical isolate 1154/08 (Influenza A virus (H1N1), UniProt G3LYR2)
[12] = biological target: neuraminidase (H275Y) of A(H1N1) clinical isolate 0963/08 (Influenza A virus (H1N1), UniProt G3LYR2, G354D)
[13] = biological target: neuraminidase of A(H1N1) clinical isolate 0006/07 (Influenza A virus (H1N1), UniProt D5F1R0, K249G)

CC(=O)N[C@@H]1[C@@H](O)C[C@](Oc2ccc3c(C)cc(=O)oc3c2)(C(=O)O)O[C@H]1C(O)[C@H](O)CO (stereo partly shown) [MUNANA]
Km [1]: 18 µM | Km [2]: 18.4 µM | Km [3]: 24 µM | Km [4]: 18.2 µM | Km [5]: 20 µM | Km [6]: 25 µM | Km [7]: 19.4 µM | Km [8]: 18 µM | Km [9]: 19 µM | Km [10]: 19.5 µM | Km [11]: 14.5 µM | Km [12]: 18.4 µM | Km [13]: 12.4 µM
